The source of these data is patent US8785638B2, “Thieno [2, 3-B] pyridine derivatives as viral replication inhibitors” (Katholieke Universiteit Leuven, priority 2009, dated 2014).

pEC50, pIC50: −log10 of the molar value. Like-named read-outs stand apart in the source and are kept apart here.

In series [1] the target is LEDGF/p75-HIV-1 integrase interaction (Human immunodeficiency virus type 1 group M subtype B (isolate HXB2) (HIV-1), UniProt P04585). Put plainly: AlphaScreen assay of LEDGF-integrase interaction inhibition. The format is binding. As for the experimental part: Alphascreen Assay to Measure the LEDGF-Integrase Interaction Inhibitory Activity of Compounds of the Invention
The AlphaScreen assay was performed according to the manufacturer's protocol (Perkin Elmer, Benelux). Reactions were performed in 25 μl final volume in 384-well Optiwell™ microtiter plates (Perkin Elmer). The reaction buffer contained 25 mM Tris-HCl (pH 7.4), 150 mM NaCl, 1 mM MgCl2, 0.01% (v/v) Tween-20 and 0.1% (w/v) bovine serum albumin. His6-tagged integrase (300 nM final concentration) was incubated with the compounds for 30 min at 4° C. The compounds were added at varying concentrations spanning a wide range from 0.1 up to 100 μM. Afterwards 100 nM flag-LEDGF/p75 was added and incubation was prolonged for an additional hour at 4° C. Subsequently 5 μl of Ni-chelate-coated acceptor beads and 5 μl anti-flag donor beads were added to a final concentration of 20 μg/ml of both beads. Proteins and beads were incubated for 1 h at 30° C. in order to allow association to occur. Exposure of the reaction to direct light was omitted as much as possible and the emission of light from the acceptor beads was measured in the EnVision plate reader (Perkin Elmer, Benelux) and analyzed using the EnVision manager software. IN/DNA binding was analyzed in a similar setting using His6-tagged integrase (1 μM final concentration) and an oligodeoxynucleotide mimicking the IN ELISA oligonucleotide substrate (30 nM final concentration). Counterscreens with JPO2 or PogZ, respectively, were essentially performed as described previously.
His6-tagged HIV-1 integrase, 3xflag-tagged LEDGF/p75, MBP-JPO2 and MBP-PogZ were purified for AlphaScreen applications as described previously 23,25,56.
A general note: In Alpha technology, singlet oxygen from a donor bead excites a nearby acceptor bead.

Series [2] relates to HIV-1 (IIIB), HIV-1 (NL4.3). Put plainly: microbe, parasite or virus in culture. The format is cell-based. Conditions: for pEC50: Human immunodeficiency virus 1, IIIB, MT4, MT-4 cells, 50% protection against HIV-induced cytopathogenic effect, MTT; for SI: selectivity index, ratio of CC50 to EC50. As for the experimental part: (§1) A rapid and automated assay procedure was used for the in vitro evaluation of anti-HIV agents. An HTLV-1 transformed T4-cell line MT-4, which was previously shown to be highly susceptible to and permissive for HIV infection, served as the target cell line. Inhibition of the HIV-induced cytopathogenic effect was used as the end point. The viabitlity of both HIV- and mock-infected cells was assessed spectrophotometrically via in situ reduction of 3-(4,5-dimethylthiazol-2-yl)-2,5-diphenyltetrazolium bromide (MTT). The 50% cytotoxic concentration (CC50 in μM or μg/ml) was defined as the concentration of compound that reduced the absorbance of the mock-infected control sample by 50%. The percent protection achieved by the compound in HIV-infected cells was calculated by the following formula:
(§2) [formula] whereby (ODT)HIV is the optical density measured with a given concentration of the test compound in HIV-infected cells; (ODC)HIV is the optical density measured for the control untreated HIV-infected cells; (ODC)MOCK is the optical density measured for the control untreated mock-infected cells; all optical density values were determined at 540 nm. The dose achieving 50% protection according to the above formula was defined as the 50% inhibitory concentration (EC50 in μM or μg/ml). The ratio of CC50 to EC50 was defined as the selectivity index (SI). […] Examples of inhibition of cell proliferation by particular compounds of the invention can be found by looking at the respective CC50 values in the MT-4 cell line. Cells:
(§3) MT-4 cells (Miyoshi et al., 1982) were grown and maintained in RPMI 1640 medium supplemented with 10% heat-inactivated fetal calf serum, 2 mM I-glutamine, 0.1% sodium bicarbonate, and 20 μg of gentamicin per ml. Alternatively, the MT-4 cells may also be grown in RPMI 1640 medium supplemented with 10% FCS and 20 μg/ml of gentamicin (RPMI-complete).
The HIV-1 (IIIB) strain (Popovic et al., 1984) as well as the HIV-1 (NL4.3) strain (Adachi et al., J. Virol. 59, 284-291 (1986)) were used.
Background: Protection from cytopathic effect is a common read-out in antiviral testing.

The nature of series [3]: Cytotoxicity in mock-infected MT-4 cells (MTT). The format is cell-based. Particulars: human, 50% cytotoxic concentration. As for the experimental part: as §1, §2, §3
[4] abbreviates: His6-tagged integrase 300 nM, flag-LEDGF/p75 100 nM, read-out: Alphascreen IC50.

By pIC50 is commonly meant the negative decadic logarithm of the IC50, by convention in mol/L. For orientation: pEC50 means −log10 of the EC50, conventionally taken in molar units. Read a high pEC50 as a low EC50. Usually CC50 stands for the concentration at which the toxic effect on the cells reaches its halfway point. A low value points to harm at low concentration. As to `CCCC(C(=O)O)c1c(C)nc2sc3c(c2c1-c1ccc(C)cc1)CCC3C` (stereo not drawn) [Cpd 128, 2-[2-methyl-7-methyl-4-p-tolyl-6,7-dihydro-5H-cyclopenta[4,5]thieno[2,3-b]pyridin-3-yl]pentanoic acid], in series [1] (setting [4]), the pIC50 was 4.95. Further, in series [2], the pEC50 was 5.39 and the SI is reported as 30. The compound further came in with a CC50 in series [3] of 121 µM.

Consider `CCCC(C(=O)O)c1c(C)nc2sc3c(c2c1-c1cccc(Cl)c1)CCCC3` (stereo not drawn) [Cpd 138, 2-[2-Methyl-4-(3-chlorophenyl)-5,6,7,8-tetrahydro[1]benzothieno[2,3-b]pyridin-3-yl]pentanoic acid], for which, in series [1] (setting [4]), the pIC50 was 4.40. In addition, in series [2], the pEC50 is 4.36 and the SI was 2. The CC50 in series [3] was determined as 100 µM.

For `CCCC(C(=O)O)c1c(-c2ccccc2)nc2sc3c(c2c1-c1ccc(C)cc1)CCC3` (stereo not drawn) [Cpd 126, 2-[2-phenyl-4-p-tolyl-6,7-dihydro-5H-cyclopenta[4,5]thieno[2,3-b]pyridin-3-yl]pentanoic acid], in series [1] (setting [4]), the pIC50 was 4.25. Also, the pEC50 in series [2] is < 4.52. Also, the CC50 in series [3] came out at 30.1 µM.

For the compound `Cc1ccc(-c2c(C(CCCC(F)(F)F)C(=O)O)c(C)nc3sc4c(c23)CCCC4)cc1` (stereo not drawn) [Cpd 147, 2-[2-Methyl-4-(p-tolyl)-5,6,7,8-tetrahydro[1]benzothieno[2,3-b]pyridin-3-yl]-6,6,6-trifluorohexanoic acid], the pIC50 in series [1] (setting [4]) was 4.63. In series [2], the pEC50 is 5.06 and the SI stood at 5. For the same compound, in series [3], the CC50 is 41.5 µM.

Regarding `CCCC(C(=O)O)c1c(C)nc2scc(-c3ccccc3)c2c1-c1ccc(C)cc1` (stereo not drawn) [Cpd 143], the pIC50 in series [1] (setting [4]) was 4.31. The pEC50 in series [2] was < 4.18. Besides, in series [3], half-maximal cytotoxicity (CC50) was put at 66 µM.

As for `Cc1ccc(-c2c(C(OC(C)(C)C)C(=O)O)c(C)nc3sc4c(c23)CCCC4)cn1` (stereo not drawn) [Cpd 184, 2-[2-methyl-4-(6-methylpyridin-3-yl)-5,6,7,8-tetrahydro[1]benzothieno[2,3-b]pyridin-3-yl]-2-tert-butoxyacetic acid], in series [1] (setting [4]), the pIC50 is 5.46. Moreover, in series [2], the pEC50 is 6.80 and the SI came out at 1513. In series [3], this compound yielded a CC50 of 237 µM.

In the case of `CCCC(C(=O)O)c1c(C)nc2sc3c(c2c1-c1ccc(Cl)cc1)CCCC3` (stereo not drawn) [Cpd 148, 2-[2-Methyl-4-(4-chlorophenyl)-5,6,7,8-tetrahydro[1]benzothieno[2,3-b]pyridin-3-yl]pentanoic acid], in series [1] (setting [4]), the pIC50 was 5.66. Besides, in series [2], the negative logarithm of the EC50 (pEC50) was 6.28 and the SI is listed as 132. Half-maximal cytotoxicity in series [3] (CC50) was put at 70 µM.

In the case of `Cc1ccc(-c2c(C(CC(C)(C)C)C(=O)O)c(C)nc3sc4c(c23)CCCC4)cc1` (stereo not drawn) [Cpd 162, 2-[2-Methyl-4-(p-tolyl)-5,6,7,8-tetrahydro[1]benzothieno[2,3-b]pyridin-3-yl]-4,4-dimethylpentanoic acid], the pIC50 in series [1] (setting [4]) is 5.80. Further, in series [2], the pEC50 is 6.48 and the SI worked out at 217. Further, the CC50 in series [3] is 71.7 µM.

On to `CCCC(C(=O)O)c1c(C)nc2sc3c(c2c1-c1ccc(OC(F)(F)F)cc1)CCCC3` (stereo not drawn) [Cpd 151, 2-[2-Methyl-4-(4-trifluoromethoxyphenyl)-5,6,7,8-tetrahydro[1]benzothieno[2,3-b]pyridin-3-yl]pentanoic acid], for which, in series [1] (setting [4]), the pIC50 was 4.67. For the same compound, in series [2], the pEC50 was 5.10 and the SI is reported as 6. The compound also had a CC50 in series [3] of 48 µM.

`CCCC(C(=O)O)c1c(C)nc2sc3c(c2c1-c1ccc(C(F)(F)F)cc1)CCC3` (stereo not drawn) [Cpd 116, 2-[2-Methyl-4-(4-trifluoromethylphenyl)-6,7-dihydro-5H-cyclopenta[4,5]thieno[2,3-b]pyridin-3-yl]pentanoic acid]: the pIC50 in series [1] (setting [4]) is 6.21. Besides, in series [2], the pEC50 was 5.92 and the SI stood at 12. Further, in series [3], the midpoint of cytotoxicity, the CC50, lay at 14.7 µM.

As for `CCCC(C(=O)O)c1c(C)nc2sc3c(c2c1-c1ccco1)CCC3` (stereo not drawn) [Cpd 129, 2-[2-Methyl-4-(2-furyl)-6,7-dihydro-5H-cyclopenta[4,5]thieno[2,3-b]pyridin-3-yl]pentanoic acid], the pIC50 in series [1] (setting [4]) is 4.32. Further, in series [2], the pEC50 was < 3.89. In series [3], this compound displayed a CC50 of 130 µM.

Turning to `CCCC(c1c(C)nc2sc3c(c2c1-c1ccc(C)cc1)CCCC3)C1SC(=O)NC1=O` (stereo not drawn) [Cpd 182], the pIC50 in series [1] was ~4.10. Further, in series [2], the pEC50 is < 4.56. Also, the CC50 in series [3] worked out at 27.3 µM.

On to `CCCC(C(=O)O)c1c(C)nc2sc3c(c2c1-c1ccc(CC)cc1)CCC3` (stereo not drawn) [Cpd 117, 2-[2-Methyl-4-(4-ethylphenyl)-6,7-dihydro-5H-cyclopenta[4,5]thieno[2,3-b]pyridin-3-yl]pentanoic acid], for which the pIC50 in series [1] (setting [4]) is 6.11. Further, in series [2], the pEC50 was 6.28 and the SI was 107. Besides, the midpoint of cytotoxicity in series [3], the CC50, lay at 54.3 µM.

In the case of `CCCC(C(=O)O)c1c(C)nc2sc3c(c2c1-c1ccc(C)cc1)CC(C)C3` (stereo not drawn) [Cpd 127, 2-[2-methyl-6-methyl-4-p-tolyl-6,7-dihydro-5H-cyclopenta[4,5]thieno[2,3-b]pyridin-3-yl]pentanoic acid], the pIC50 in series [1] (setting [4]) is 5.55. Besides, in series [2], the pEC50 was 6.10 and the SI is 105. The compound also yielded a CC50 in series [3] of 82.9 µM.

Turning to `CCCC(C(=O)O)c1c(C)nc2sc3c(c2c1-c1cccnc1)CCCC3` (stereo not drawn) [Cpd 150, 2-[2-Methyl-4-(pyridin-3-yl)-5,6,7,8-tetrahydro[1]benzothieno[2,3-b]pyridin-3-yl]pentanoic acid], the pIC50 in series [1] (setting [4]) was 5.86. For the same compound, in series [2], the pEC50 is 6.11 and the SI was 49. This compound also showed a CC50 in series [3] of 38.5 µM.

With `CCCC(C(=O)O)c1c(C)nc2sc3c(c2c1-c1ccc(C)cc1)CCCCC3` (stereo not drawn) [Cpd 135], in series [1], the negative-log IC50 (pIC50) is 4.25. Also, in series [2], the pEC50 is 4.37 and the SI amounted to 3. This compound gave a CC50 in series [3] of 109 µM.

In the case of `Cc1ccc(-c2c(CC(=O)O)c(C)nc3sc(C)cc23)cc1` [Cpd 106, (2,6-Dimethyl-4-p-tolylthieno[2,3-b]pyridin-5-yl)acetic acid], the pIC50 in series [1] (setting [4]) was 4.27. Also, in series [2], the pEC50 is 4.02 and the SI was >1. Further, in series [3], the CC50 is > 125 µM.

`Cc1ccc(-c2c(C(OC(C)(C)C)C(=O)O)c(C)nc3sc4c(c23)CCCC4)cc1` (stereo not drawn) [Cpd 170, 2-[2-Methyl-4-p-tolyl-5,6,7,8-tetrahydro[1]benzothieno[2,3-b]pyridin-3-yl]-2-tert-butoxyacetic acid]: the pIC50 in series [1] (setting [4]) was 7.30. In series [2], the pEC50 was 7.58 and the SI came out at 4429. The CC50 in series [3] stood at 116 µM.

In series [1], `Cc1nc2sc3c(c2c(-c2ccc4c5c(ccnc25)CCO4)c1C(OC(C)(C)C)C(=O)O)CCCC3` (stereo not drawn) [Cpd 190] gave a pIC50 of 6.43. Also, in series [2], the pEC50 is 7.82 and the SI came out at 8401. This compound gave a CC50 in series [3] of 129 µM.

For `CCCC(C(=O)O)c1c(C)nc2sc(CC)c(C)c2c1-c1ccc(C)cc1` (stereo not drawn) [Cpd 111, 2-(2-Ethyl-3,6-dimethyl-4-p-tolylthieno[2,3-b]pyridin-5-yl)pentanoic acid], in series [2], the pEC50 is 5.89 and the SI is 43. The midpoint of cytotoxicity in series [3], the CC50, lay at 54.4 µM.
